The assay concerns A549 cells. As to the kind of experiment: Combination dose-matrix cell viability assay (CellTiter-Blue / alamar blue), A549. The class given is cell-based. As to conditions: in the presence of increasing concentrations of cladribine. An excerpt: The inhibition ranges from 0% at the untreated level to 100% when T=0.
This effectively calculates a volume between the measured and Loewe additive response surfaces, weighted towards high inhibition and corrected for varying dilution factors.
(In general: The colour change of resazurin is a common sign of viable cells or microbes.)

SMILES strings stand for the structures.

As to `CCN1CCN(Cc2ccc(-c3cc4c(N[C@H](C)c5ccccc5)ncnc4[nH]3)cc2)CC1` [{6-[4-(4-ethyl-piperazin-1-ylmethyl)-phenyl]-7H-pyrrolo[2,3-d]pyrimidin-4-yl]-((R)-1-phenyl-ethyl)-amine], the “change in potency of the Erb-B/VEGF inhibitor” value is on record as “significant increase in the potency”.

Values taken from patent US20090099103A1, “COMBINATIONS OF THERAPEUTIC AGENTS FOR TREATING CANCER” (NOVARTIS AG., priority 2006, published 2009).
